The test system of series [1] is Human B Lymphocyte cell line, SU-DHL-8. In words: Relative cell viability (CCK-8), SU-DHL-8. Type of series: cell-based. The note with it: for Relative cell viability (%): 48 hours, untreated cells (DMSO) = 100%. The protocol:
Human-derived B lymphoma cell line SU-DHL-8 (Cat. #CRL-2961) purchased from ATCC was cultured in RPMI-1640 medium containing […], 100 U/mL penicillin, and 100 μg/mL streptomycin.
The cell culture medium was then harvested, centrifuged at 1,300 rpm for 5 minutes, and the supernatant was removed. The cells were resuspended in the same medium and dispensed into a 96-well plate (Costar 96-well cell culture plate, Corning) at 90 μL per well, resulting in the conditions specified in Table 5.
Then, 10 μL of CCK-8 was added to each well, and the plates were incubated again at 37° C. in a 5% CO2 incubator for 4 hours.
In other words, when the survival rate of untreated cells (DMSO) is set at 100%, the relative cell survival rate in each group treated with the drug at different concentrations is indicated.

For series [2], the system named is T cells isolated from mouse spleens. Description: T cell proliferation inhibition (CFSE flow cytometry, anti-CD3/anti-CD28 activation). The series is classed as cell-based, C57BL/6 mice. The note with it: mouse spleen T cells, CD3/CD28 activated, cultured three days. As to the method:
To verify the T cell proliferation inhibitory effect of the compounds according to the present invention, the following experiment was performed based on flow cytometry analysis using carboxyfluorescein diacetate succinimidyl ester (CFSE), a fluorescent dye that binds to intracellular molecules via covalent bonds.
Spleens were extracted from 7-week-old C57BL/6 mice, ground, and then separated into single cells using a strainer ([…], SPL). Red blood cells were removed using ACK (Ammonium-Chloride-Potassium) lysis buffer to isolate white blood cells.
Finally, using a MACS Magnetic Stand and LS column, T cells were isolated from the spleen.
The T cells isolated from the spleen were resuspended in 1 mL of free medium (RPMI-1640+200 U/mL penicillin+200 μg/mL streptomycin), and 0.3 μL of CFSE (10 mM) was added. The mixture was incubated at 37° C. for 5 minutes.
Free medium (10 mL) was added to stop the reaction, and the cells were centrifuged to obtain the cell pellet.
RPMI 1640 medium containing 10% FBS, 100 U/mL penicillin, 100 μg/mL streptomycin, and resuspended the cells. The cells were then seeded into a 96-well plate at a density of 2×10^5 cells per well and activated with CD3 and CD28 antibodies ([…]) to activate T cells.
The compound diluted in DMSO was added at concentrations of 10 nM, 100 nM, 1 μM, […], 30 μM, and 50 µM, with three wells per concentration, and cultured at 37° C. and 5% CO2 for three days. The cells were then analyzed using a FACS Canto instrument.
The proliferation inhibition rate (%) was calculated using the following formula: […]
For orientation: Flow cytometry measures light scatter and fluorescence of single cells or particles in a stream.

For the compound `COc1ccc(CN2CCN(CCCCCCCCCCCCNC(=O)c3cccnc3N)CC2)cc1` [Compound 28, 2-Amino-N-(12-(4-(4-methoxybenzyl)piperazin-1-yl)dodecyl) nicotinamide], the “Relative cell viability (%)” value in series [1] (SU-DHL-8, 1 μM) was 5.46%; in series [1] (SU-DHL-8, 10 μM) it was 2.82%; in series [1] (SU-DHL-8, 30 μM), 0.33%. Moreover, the “Proliferation inhibition rate (%)” value is reported as −0.27% in series [2] (10 nM); 100.00% in series [2] (100 nM); 100.00% in series [2] (1 μM); 100.00% in series [2] (10 μM); 100.00% in series [2] (30 μM); 100.00% in series [2] (50 μM).
Turning to `CC1CN(CCCCCCCCCCCCNC(=O)c2cccnc2N)CC(C)O1` (stereo not drawn) [Compound 21, 2-Amino-N-(12-(2,6-dimethylmorpholino)dodecyl) nicotinamide], the “Relative cell viability (%)” value in series [1] (SU-DHL-8, 30 μM) is recorded as 3.70%. Also, the “Proliferation inhibition rate (%)” value in series [2] (100 nM), in series [2] (1 μM), in series [2] (10 μM), in series [2] (30 μM) and in series [2] (50 μM) was 100.00% throughout.
As for `Cc1ccc(C2CCN(CCCCCCCCCCCCNC(=O)c3cccnc3N)CC2)cc1` [Compound 55, 2-Amino-N-(12-(4-(p-tolyl)piperidin-1-yl)dodecyl) nicotinamide], the “Relative cell viability (%)” value is reported as 1.10% in series [1] (SU-DHL-8, 30 μM) and 0.97% in series [1] (SU-DHL-8, 50 μM). The “Proliferation inhibition rate (%)” value in series [2] (100 nM), in series [2] (1 μM), in series [2] (10 μM), in series [2] (30 μM) and in series [2] (50 μM) was 100.00% each time.
By viability is commonly meant a per cent measure of how many cells are alive, often set against a control. With `CC(C)(C)OC(=O)N[C@H]1CCN(CCCCCCCCCCCCNC(=O)c2cccnc2N)C1` [Compound 49, tert-Butyl(S)-(1-(12-(2-aminonicotinamido)dodecyl)pyrrolidin-3-yl)carbamate], the viability at 1 µM in series [1] (Homo sapiens, SU-DHL-8, 48 h, read-out: Relative cell viability (%), SU-DHL-8, 1 μM, untreated cells (DMSO) = 100%) came out at 8.93%. Moreover, the viability at 10 µM in series [1] (Homo sapiens, SU-DHL-8, 48 h, read-out: Relative cell viability (%), SU-DHL-8, 10 μM, untreated cells (DMSO) = 100%) came out at 8.02%. Besides, the viability at 30 µM in series [1] (Homo sapiens, SU-DHL-8, 48 h, read-out: Relative cell viability (%), SU-DHL-8, 30 μM, untreated cells (DMSO) = 100%) was found to be 7.48%. The viability at 50 µM in series [1] (Homo sapiens, SU-DHL-8, 48 h, read-out: Relative cell viability (%), SU-DHL-8, 50 μM, untreated cells (DMSO) = 100%) is 4.09%. In addition, the inhibition at 0.01 µM in series [2] (Mus musculus, T-cell, 72 h, 10 nM, read-out: Proliferation inhibition rate (%)) was -22.6%. Besides, the inhibition at 0.1 µM in series [2] (Mus musculus, T-cell, 72 h, 100 nM, read-out: Proliferation inhibition rate (%)) was determined as 100%. Moreover, the inhibition at 1 µM in series [2] (Mus musculus, T-cell, 72 h, 1 μM, read-out: Proliferation inhibition rate (%)) was 100%. Further, the inhibition at 10 µM in series [2] (Mus musculus, T-cell, 72 h, 10 μM, read-out: Proliferation inhibition rate (%)) was 100%. In addition, in series [2] (Mus musculus, T-cell, 72 h, 30 μM, read-out: Proliferation inhibition rate (%)), the inhibition at 30 µM was determined as 100%. In series [2] (Mus musculus, T-cell, 72 h, 50 μM, read-out: Proliferation inhibition rate (%)), the inhibition at 50 µM turned out to be 100%.
As for `Nc1ncccc1C(=O)NCCCCCCCCCCCCN1CCC(F)C1` (stereo not drawn) [Compound 26, 2-Amino-N-(12-(3-fluoropyrrolidin-1-yl)dodecyl) nicotinamide], the “Relative cell viability (%)” value in series [1] (SU-DHL-8, 1 μM) is on record as 1.70%; in series [1] (SU-DHL-8, 30 μM), 0.05%. Besides, the “Proliferation inhibition rate (%)” value in series [2] (100 nM), in series [2] (1 μM), in series [2] (10 μM), in series [2] (30 μM) and in series [2] (50 μM) was 100.00% each time.
`Nc1ncccc1C(=O)NCCCCCCCCCCCCN1CCC(Oc2ccncc2)CC1` [Compound 38, 2-Amino-N-(12-(4-(pyridin-4-yloxy)piperidin-1-yl)dodecyl) nicotinamide]: the “Relative cell viability (%)” value in series [1] (SU-DHL-8, 10 μM) amounted to 3.30%. Further, the “Proliferation inhibition rate (%)” value in series [2] (100 nM), in series [2] (1 μM), in series [2] (10 μM), in series [2] (30 μM) and in series [2] (50 μM) was 100.00% throughout.

(Values after patent publication US20260183303A1, “PDK1 REGULATORY COMPOUND AND COMPOSITION CONTAINING THE SAME” (PROVIBIO CO., LTD., priority 2024, published 2026).)
